Data taken from EP1660440B1, “ACYLOXYALKYL CARBAMATE PRODRUGS, METHODS OF SYNTHESIS AND USE” (priority 2003, dated 2005).
Read-outs that look alike come from different tables or passages of the source.

Legend:
Pancreatin stability = format: in vitro ADME, porcine; details: pig; for metabolised at 1 h, 5 µM: pH 7.5, 1 % (w/v) pancreatin, read-out: % of Baclofen Released; for remaining at 1 h, 5 µM: read-out: % of Prodrug Remaining
Experimental: (§1) Pancreatin Stability: Stability studies were conducted by incubating prodrug (5 µM) with 1 % (w/v) pancreatin (Sigma, P-1625, from porcine pancreas) in 0.025 M Tris buffer containing 0.5 M NaCl (pH 7.5) at 37 °C for 60 min. The reaction was stopped by addition of 2 volumes of methanol. After centrifugation at 14,000 rpm for 10 min, the supernatant was removed and analyzed by LC/MS/MS.

in vitro [1] = details: human
Experimental: (§2) For stability studies, prodrug (5 µM) was incubated in Caco-2 homogenate S9 fraction (0.5 mg protein per mL) for 60 min at 37°C. Concentrations of intact prodrug and released baclofen were determined at zero time and 60 minutes using LC/MS/MS.

in vitro [2] = details: human, plasma
Experimental: (§3) The stabilities of prodrugs were evaluated in one or more in vitro systems using a variety of tissue preparations following methods known in the art. The chemical stability of prodrugs in aqueous buffers at pH's of 2.0, 7.4 and 8.0 were also measured. […] Each preparation was incubated with test compound at 37°C for one hour. Aliquots (50 µL) were removed at 0, 30, and 60 min and quenched with 0.1 % trifluoroacetic acid in acetonitrile.

in vitro [3] = details: human, Caco-2
Experimental: (§4) For example, cellular permeability may be evaluated by examining the flux of a prodrug across a cultured polarized cell monolayer (e.g., Caco-2 cells). Caco-2 cells obtained from continuous culture (passage less than 28) were seeded at high density onto Transwell polycarbonate filters. Cells were maintained with DMEM / 10% fetal calf serum + 0.1 mM nonessential amino acids + 2 mM L-Gln, 5% CO2/ / 95% O2, 37°C until the day of the experiment. Permeability studies were conducted at pH 6.5 apically (in 50 mM MES buffer containing 1 mM CaCl2, 1mM MgCl2, 150 mM NaCl, 3 mM KCl, 1 mM NaH2PO4, 5 mM glucose) and pH 7.4 basolaterally (in Hanks' balanced salt solution containing 10 mM HEPES) in the presence of efflux pump inhibitors (250 µM MK-571, 250 µM Verapamil, 1 mM Ofloxacin). Inserts were placed in 12 or 24 well plates containing buffer and incubated for 30 min at 37C°. Prodrug (200 µM) was added to the apical or basolateral compartment (donor) and concentrations of prodrug and/or released parent drug in the opposite compartment (receiver) were determined at intervals over 1 hour using LC/MS/MS. Values of apparent permeability (Papp) were calculated using the equation: Papp = Vr (dC/dt)//(ACo) [formula]
(§5) Here Vr is the volume of the receiver compartment in mL; dC/dt is the total flux ofprodrug and parent drug (µM/s), determined from the slope of the plot of concentration in the receiver compartment versus time; Co is the initial concentration of prodrug in µM; A is the surface area of the membrane in cm^2.

in vitro [4] = details: human; remark: listed apart in the source
Experimental: as §3

in vitro [5] = details: rat, plasma
Experimental: as §3

physchem = details: aqueous buffer
Experimental: as §3

in vitro [6] = details: rat
Experimental: as §3

Pancreatin = Pancreatin stability; format: in vitro ADME, porcine; details: 1 % (w/v) pancreatin, 5 µM, pH 7.5, 37 °C, after 60 min
Experimental: as §1

[7] = not given; remark: listed apart in the source
Caco-2 cells = details: human, Caco-2, 200 uM
Experimental: as §4, §5

[8] = not given; remark: listed apart in the source
[9] = 5 µM
Experimental: as §2

[10] = not given; remark: listed apart in the source
[11] = not given; remark: listed apart in the source
[12] = pancreatin, 5 µM, pH 7.5, 37 °C, after 60 min
[13] = 1 % (w/v) pancreatin, 5 µM, pH 7.5, 37 °C, after 60 min
[14] = Human Plasma, 2.0 µM, 37°C, after 60 min, 60 min
[15] = Human Liver S9 (0.5 mg/mL), 2.0 µM, NADPH, 37°C, after 60 min, 60 min
[16] = Rat Liver S9 (0.5 mg/mL), 2.0 µM, NADPH, 37°C, after 60 min, 60 min
[17] = Caco-2 S9 (0.5 mg protein per mL), 37°C, after 60 min, 60 min
[18] = Rat Plasma, 2.0 µM, 37°C, after 60 min, 60 min
[19] = liver s9, % of Prodrug Remaining

SMILES	metabolised at 1 h, 5 µM (Pancreatin stability; [12]) [%]	remaining at 1 h, 5 µM (Pancreatin stability; [13]) [%]	metabolised at 1 h, 5 µM (in vitro [1]; s9) [%]	metabolised at 1 h, 2 µM (in vitro [2]) [%]	Papp A→B at 200 µM (in vitro [3]) [×10⁻⁶ cm/s]	Papp B→A at 200 µM (in vitro [3]) [×10⁻⁶ cm/s]	metabolised at 1 h, 2 µM (in vitro [4]; s9) [%]	metabolised at 1 h, 2 µM (in vitro [5]) [%]	degraded at 1 h (physchem; pH 2) [%]	degraded at 1 h (physchem; pH 7.4) [%]	degraded at 1 h (physchem; pH 8) [%]	metabolised at 1 h, 2 µM (in vitro [6]; s9) [%]	% of Baclofen Released (human, plasma, 1 h, 2 µM) [%]	% of Prodrug Remaining (human, plasma, 1 h, 2 µM) [%]	% of Baclofen Released (Pancreatin) [%]	% of Prodrug Remaining (Pancreatin) [%]	% of Baclofen Released ([7]; human, s9, 1 h, 2 µM) [%]	% of Prodrug Remaining ([7]; human, s9, 1 h, 2 µM) [%]	Ratio A-BB-A (Caco-2 cells)	% of Baclofen Released ([8]; rat, s9, 1 h, 2 µM) [%]	further results
CCCC(=O)OCOC(=O)NC[C@H](CC(=O)O)c1ccc(Cl)cc1 [(16), Sodium 4-[(Butanoyloxymethoxy)carbonylamino]-(3R)-(4-chlorophenyl)-butanoate]	84	1	100	20	6.1	1.2	100	40	0	0	0	100									
CC(=O)OC(C)OC(=O)NC[C@H](CC(=O)O)c1ccc(Cl)cc1 (stereo partly drawn) [(30), Sodium 4-[(1-Acetoxyethoy)carbonylamino]-(3R)-(4-chlorophenyl)-butanoate]	9	90	70	8	8.7	2.3	87	42	0	1	3	85									
CC(C)(C)C(=O)OCOC(=O)NC[C@H](CC(=O)[O-])c1ccc(Cl)cc1.[Na+] [(20), Sodium 4-[(Pivaloyloxymethoxy)carbonylamino]-(3R)-(4-chlorophenyl)-butanoate]													9	82	36	58	100	1	11.8	75	% of Prodrug Remaining ([8]; rat, s9, 1 h, 2 µM): 25%; % of Baclofen Released ([9]; human, s9, 1 h): 100%; % of Prodrug Remaining ([9]; human, s9, 1 h): 1%; % of Baclofen Released ([10]; aqueous buffer, 1 h, pH 2): 0%; % of Prodrug Remaining ([10]; aqueous buffer, 1 h, pH 2): 100%; % of Baclofen Released ([10]; aqueous buffer, 1 h, pH 7.4): 0%; % of Prodrug Remaining ([10]; aqueous buffer, 1 h, pH 7.4): 100%; % of Baclofen Released ([10]; aqueous buffer, 1 h, pH 8): 0%; % of Prodrug Remaining ([10]; aqueous buffer, 1 h, pH 8): 103%; % of Baclofen Released ([11]; rat, plasma, 1 h, 2 µM): 8%; % of Prodrug Remaining ([11]; rat, plasma, 1 h, 2 µM): 92%
CC(C)C(=O)OCOC(=O)NC[C@H](CC(=O)O)c1ccc(Cl)cc1 [(18), Sodium 4-[(Isobutanoyloxymethoxy)carbonylamino]-(3R)-(4-chlorophenyl)-butanoate]	91	2	100	27	6.4	5.6	100	60	0	0	0	100									
CC(C)C(=O)O[C@@H](OC(=O)NC[C@H](CC(=O)O)c1ccc(Cl)cc1)C(C)C [(104), 4-{[(1S)-Isobutanoyloxyisobutoxy]carbonylamino}-(3R)-(4-chlorophenyl) -butanoic Acid]																					% of Baclofen Released [14]: 2%; % of Prodrug Remaining [14]: 98%; remaining at 1 h, 5 µM (Pancreatin stability; pancreatin, pH 7.5): 90%; % of Baclofen Released [7, 15]: 97%; % of Prodrug Remaining [7, 15]: 3%; degraded at 1 h (physchem; pH 2, % of Baclofen Released): 0%; degraded at 1 h (physchem; pH 7.4, % of Baclofen Released): 0%; % of Baclofen Released [8, 16]: 97%; % of Prodrug Remaining [8, 16]: 3%; % of Baclofen Released [9, 17]: 83%; % of Prodrug Remaining [9, 17]: 17%; % of Prodrug Remaining ([10]; aqueous buffer pH 7.4, 37°C, after 60 min, 60 min): 100%; % of Baclofen Released ([10]; aqueous buffer pH 8.0, 37°C, after 60 min, 60 min): 0%; % of Prodrug Remaining ([10]; aqueous buffer, pH 2, 60 min): 100/0%; % of Prodrug Remaining ([10]; aqueous buffer, pH 8, 60 min): 100/0%; % of Baclofen Released [11, 18]: 85%; % of Prodrug Remaining [11, 18]: 14%
CCOC(C)(OCC)C(=O)OCOC(=O)NC[C@H](CC(=O)[O-])c1ccc(Cl)cc1.[Na+] [(51), Sodium 4-[(2,2-Diethoxypropanoyloxymethoxy)carbonylamino]-(3R)-(4-chlorophenyl)-butanoate]													50	53	50	44	91	6	3.0	103	% of Prodrug Remaining ([8]; rat, s9, 1 h, 2 µM): 2%; % of Baclofen Released ([9]; human, s9, 1 h): 100%; % of Prodrug Remaining ([9]; human, s9, 1 h): 3%; % of Baclofen Released ([10]; aqueous buffer, 1 h, pH 2): 0%; % of Prodrug Remaining ([10]; aqueous buffer, 1 h, pH 2): 100%; % of Baclofen Released ([10]; aqueous buffer, 1 h, pH 7.4): 2%; % of Prodrug Remaining ([10]; aqueous buffer, 1 h, pH 7.4): 97%; % of Baclofen Released ([10]; aqueous buffer, 1 h, pH 8): 9%; % of Prodrug Remaining ([10]; aqueous buffer, 1 h, pH 8): 91%; % of Baclofen Released ([11]; rat, plasma, 1 h, 2 µM): 72%; % of Prodrug Remaining ([11]; rat, plasma, 1 h, 2 µM): 31%
CCCC(=O)O[C@H](CCC)OC(=O)NC[C@H](CC(=O)O)c1ccc(Cl)cc1 [(86), Sodium 4-{[(1S)-Butanoyloybutoxy]carbonylamino}-(3R)-(4-chlorophenyl)-butanoate]	76	4						83													metabolised at 1 h, 5 µM (in vitro [1]; caco-2 homogenate s9): 95%; metabolised at 1 h, 2 µM (in vitro [2]; % of Baclofen Released): 13%; metabolised at 1 h, 2 µM (in vitro [4]; liver s9): 87%; remaining at 1 h, 2 µM (in vitro [4]; [19]): 2%; degraded at 1 h (physchem; pH 2, % of Baclofen Released): 0%; degraded at 1 h (physchem; pH 7.4, % of Baclofen Released): 1%; degraded at 1 h (physchem; pH 8, % of Baclofen Released): 2%; metabolised at 1 h, 2 µM (in vitro [6]; liver s9): 92%; remaining at 1 h, 2 µM (in vitro [6]; [19]): 2%
CC(=O)OCOC(=O)NC[C@H](CC(=O)[O-])c1ccc(Cl)cc1.[Na+] [(10), Sodium 4-[(Acetoxymethoxy)carbonylamino]-(3R)-(4-chlorophenyl)-butanoate]													26	64	21	75	80	1	1.2	78	% of Prodrug Remaining ([8]; rat, s9, 1 h, 2 µM): 0%; % of Baclofen Released ([9]; human, s9, 1 h): 96%; % of Prodrug Remaining ([9]; human, s9, 1 h): 2%; % of Baclofen Released ([10]; aqueous buffer, 1 h, pH 2): 1%; % of Prodrug Remaining ([10]; aqueous buffer, 1 h, pH 2): 100%; % of Baclofen Released ([10]; aqueous buffer, 1 h, pH 7.4): 3%; % of Prodrug Remaining ([10]; aqueous buffer, 1 h, pH 7.4): 101%; % of Baclofen Released ([10]; aqueous buffer, 1 h, pH 8): 9%; % of Prodrug Remaining ([10]; aqueous buffer, 1 h, pH 8): 98%; % of Baclofen Released ([11]; rat, plasma, 1 h, 2 µM): 15%; % of Prodrug Remaining ([11]; rat, plasma, 1 h, 2 µM): 85%
